Test results as given in patent US9169254B2, “Spiroimidazolone derivative” (Chugai Seiyaku Kabushiki Kaisha, priority 2009, dated 2015).

Molecular target: T1, human PTH1 receptor (Homo sapiens, UniProt Q03431)
T1 sequence (Q03431 27-593): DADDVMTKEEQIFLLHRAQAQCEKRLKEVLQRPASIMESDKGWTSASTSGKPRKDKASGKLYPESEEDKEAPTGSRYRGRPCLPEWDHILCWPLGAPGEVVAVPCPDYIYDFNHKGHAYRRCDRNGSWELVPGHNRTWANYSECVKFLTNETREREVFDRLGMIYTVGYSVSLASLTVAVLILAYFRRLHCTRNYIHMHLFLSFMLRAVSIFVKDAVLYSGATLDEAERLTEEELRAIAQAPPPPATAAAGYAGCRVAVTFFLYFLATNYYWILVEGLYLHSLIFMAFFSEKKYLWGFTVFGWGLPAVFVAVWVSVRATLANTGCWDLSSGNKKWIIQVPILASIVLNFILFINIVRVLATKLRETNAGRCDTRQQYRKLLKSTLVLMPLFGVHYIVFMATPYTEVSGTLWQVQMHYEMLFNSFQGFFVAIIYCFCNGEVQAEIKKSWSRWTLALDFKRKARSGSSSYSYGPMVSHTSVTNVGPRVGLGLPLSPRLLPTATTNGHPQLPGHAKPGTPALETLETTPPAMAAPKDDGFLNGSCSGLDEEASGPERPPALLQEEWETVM
Assay: In vitro cAMP signal activity in HKRK-B7 cells (LLC-PK1 cells overexpressing the human PTH1 receptor)
Assay type: cell-based
Details: HKRK-B7 cells; compound at 1×10^−3 M; cAMP produced as percentage of that produced by hPTH(1-34) at 100 nM

Row | cAMP production activity (%) | SMILES
1 | 137% | CCCCCc1ccc(C2=NC3(CCN(S(=O)(=O)/C=C/c4c(C)cc(N(C)C(N)=O)cc4C)CC3)C(=O)N2)cc1 [Compound 1021, 1-(3,5-dimethyl-4-{(E)-2-[4-oxo-2-(4-pentyl-phenyl)-1,3,8-triaza-spiro[4.5]dec-1-ene-8-sulfonyl]-vinyl}-phenyl)-1-methyl-urea]
2 | 105% | CSCCCCCCCC1=NC2(CCN(S(=O)(=O)/C=C/c3c(C)cc(N(C)C(N)=O)cc3C)CC2)C(=O)N1 [Compound 1022, 1-(3,5-Dimethyl-4-{(E)-2-[2-(7-methylsulfanyl-heptyl)-4-oxo-1,3,8-triaza-spiro[4.5]dec-1-ene-8-sulfonyl]-vinyl}-phenyl)-1-methyl-urea]
3 | 92% | Cc1cc(N(C)C(N)=O)cc(C)c1/C=C/S(=O)(=O)N1CCC2(CC1)N=C(CCCCCCCCC1(C)COC1)NC2=O [Compound 1023, 1-[3,5-Dimethyl-4-((E)-2-{2-[8-(3-methyl-oxetan-3-yl)-octyl]-4-oxo-1,3,8-triaza-spiro[4.5]dec-1-ene-8-sulfonyl}-vinyl)-phenyl]-1-methyl-urea]
4 | 66% | CCCCC#CCCCC1=NC2(CCN(S(=O)(=O)/C=C/c3c(C)cc(N(C)C(N)=O)cc3C)CC2)C(=O)N1 [Compound 1024, 1-{3,5-dimethyl-4-[(E)-2-(2-non-4-ynyl-4-oxo-1,3,8-triaza-spiro[4.5]dec-1-ene-8-sulfonyl)-vinyl]-phenyl}-1-methyl-urea]
5 | 114% | CCCCCC#CCCC1=NC2(CCN(S(=O)(=O)/C=C/c3c(C)cc(N(C)C(N)=O)cc3C)CC2)C(=O)N1 [Compound 1025, 1-{3,5-dimethyl-4-[(E)-2-(2-non-3-ynyl-4-oxo-1,3,8-triaza-spiro[4.5]dec-1-ene-8-sulfonyl)-vinyl]-phenyl}-1-methyl-urea]
6 | 82% | CCCCCCCC#CC1=NC2(CCN(S(=O)(=O)/C=C/c3c(C)cc(N(C)C(N)=O)cc3C)CC2)C(=O)N1 [Compound 1027, 1-{3,5-dimethyl-4-[(E)-2-(2-non-1-ynyl-4-oxo-1,3,8-triaza-spiro[4.5]dec-1-ene-8-sulfonyl)-vinyl]-phenyl}-1-methyl-urea]
7 | 75% | Cc1cc(N(C)C(N)=O)cc(C)c1CCS(=O)(=O)N1CCC2(CC1)N=C(c1ccc(F)c(OC(F)(F)F)c1)NC2=O [Compound 1028, 1-(4-{2-[2-(4-Fluoro-3-trifluoromethoxy-phenyl)-4-oxo-1,3,8-triaza-spiro[4.5]dec-1-ene-8-sulfonyl]-ethyl}-3,5-dimethyl-phenyl)-1-methyl-urea]
8 | 104% | Cc1cc(N(C)C(N)=O)cc(C)c1CCS(=O)(=O)N1CCC2(CC1)N=C(c1ccc3c(c1)OC(F)(F)O3)NC2=O [Compound 1029, 1-(4-{2-[2-(2,2-difluoro-benzo[1,3]dioxol-5-yl)-4-oxo-1,3,8-triaza-spiro[4.5]dec-1-ene-8-sulfonyl]-ethyl}-3,5-dimethyl-phenyl)-1-methyl-urea]
9 | 115% | Cc1cc(N(C)C(N)=O)cc(C)c1CCS(=O)(=O)N1CCC2(CC1)N=C(c1ccc(C(C)(C)C)cc1)NC2=O [Compound 1030, 1-(4-{2-[2-(4-tert-butyl-phenyl)-4-oxo-1,3,8-triaza-spiro[4.5]dec-1-ene-8-sulfonyl]-ethyl}-3,5-dimethyl-phenyl)-1-methyl-urea]
10 | 111% | Cc1cc(N(C)C(N)=O)cc(C)c1CCS(=O)(=O)N1CCC2(CC1)N=C(CCCCCCCCC1(C)COC1)NC2=O [Compound 1031, 1-[3,5-Dimethyl-4-(2-{2-[8-(3-methyl-oxetan-3-yl)-octyl]-4-oxo-1,3,8-triaza-spiro[4.5]dec-1-ene-8-sulfonyl}-ethyl)-phenyl]-1-methyl-urea]
11 | 88% | Cc1cc(N(C)C(N)=O)cc(C)c1CCS(=O)(=O)N1CCC2(CC1)N=C(CCCCCCCCCCC1(C)COC1)NC2=O [Compound 1032, 1-[3,5-dimethyl-4-(2-{2-[10-(3-methyl-oxetan-3-yl)-decyl]-4-oxo-1,3,8-triaza-spiro[4.5]dec-1-ene-8-sulfonyl}-ethyl)-phenyl]-1-methyl-urea]
12 | 54% | Cc1cc(N(C)C(=O)OC(C)(C)C)cc(C)c1CCS(=O)(=O)N1CCC2(CC1)N=C(C(C)(F)F)NC2=O [Compound 1034, (4-{2-[2-(1,1-difluoro-ethyl)-4-oxo-1,3,8-triaza-spiro[4.5]dec-1-ene-8-sulfonyl]-ethyl}-3,5-dimethyl-phenyl)-methyl-carbamic acid tert-butyl ester]
13 | 77% | CNc1cc(C)c(CCS(=O)(=O)N2CCC3(CC2)N=C(CCCCCCCC(F)(F)C(F)(F)F)NC3=O)c(C)c1 [Compound 1035, 8-[2-(2,6-Dimethyl-4-methylamino-phenyl)-ethanesulfonyl]-2-(8,8,9,9,9-pentafluoro-nonyl)-1,3,8-triaza-spiro[4.5]dec-1-en-4-one]
14 | 82% | CNc1cc(C)c(CCS(=O)(=O)N2CCC3(CC2)N=C(c2cccc(SC(F)(F)F)c2)NC3=O)c(C)c1 [Compound 1036, 8-[2-(2,6-dimethyl-4-methylamino-phenyl)-ethanesulfonyl]-2-(3-trifluoromethylsulfanyl-phenyl)-1,3,8-triaza-spiro[4.5]dec-1-en-4-one]
15 | 87% | CNc1cc(C)c(CCS(=O)(=O)N2CCC3(CC2)N=C(C2CCC(=C(C)C)CC2)NC3=O)c(C)c1 (stereo not drawn) [Compound 1037, 8-[2-(2,6-Dimethyl-4-methylamino-phenyl)-ethanesulfonyl]-2-(4-isopropylidene-cyclohexyl)-1,3,8-triaza-spiro[4.5]dec-1-en-4-one]
16 | 111% | Cc1cc(N(C)C(N)=O)cc(C)c1CCS(=O)(=O)N1CCC2(CC1)N=C(c1cccc(OC(F)(F)C(F)F)c1)NC2=O [Compound 1038, 1-[3,5-Dimethyl-4-(2-{4-oxo-2-[3-(1,1,2,2-tetrafluoro-ethoxy)-phenyl]-1,3,8-triaza-spiro[4.5]dec-1-ene-8-sulfonyl}-ethyl)-phenyl]-1-methyl-urea]
17 | 103% | Cc1cc(N(C)C(N)=O)cc(C)c1CCS(=O)(=O)N1CCC2(CC1)N=C(c1ccc3c(c1)CCCC3)NC2=O [Compound 1039, 1-(3,5-Dimethyl-4-{2-[4-oxo-2-(5,6,7,8-tetrahydro-naphthalen-2-yl)-1,3,8-triaza-spiro[4.5]dec-1-ene-8-sulfonyl]-ethyl}-phenyl)-1-methyl-urea]
18 | 111% | Cc1cc(N(C)C(N)=O)cc(C)c1CCS(=O)(=O)N1CCC2(CC1)N=C([C@@H]1C[C@H](C)C[C@H](C)C1)NC2=O [Compound 1040, 1-(4-{2-[2-((1S,3S,5R)-3,5-dimethyl-cyclohexyl)-4-oxo-1,3,8-triaza-spiro[4.5]dec-1-ene-8-sulfonyl]-ethyl}-3,5-dimethyl-phenyl)-1-methyl-urea]
19 | 38% | CCCC(CCC)C1=NC2(CCN(S(=O)(=O)CCc3c(C)cc(N(C)C(N)=O)cc3C)CC2)C(=O)N1 [Compound 1041, 1-(3,5-dimethyl-4-{2-[4-oxo-2-(1-propyl-butyl)-1,3,8-triaza-spiro[4.5]dec-1-ene-8-sulfonyl]-ethyl}-phenyl)-1-methyl-urea]
20 | 102% | Cc1cc(N(C)C(N)=O)cc(C)c1CCS(=O)(=O)N1CCC2(CC1)N=C(C1CCC(CC(F)(F)C(F)(F)F)CC1)NC2=O (stereo not drawn) [Compound 1042, 1-[3,5-dimethyl-4-(2-{4-oxo-2-[4-(2,2,3,3,3-pentafluoro-propyl)-cyclohexyl]-1,3,8-triaza-spiro[4.5]dec-1-ene-8-sulfonyl}-ethyl)-phenyl]-1-methyl-urea]
21 | 99% | Cc1cc(N(C)C(N)=O)cc(C)c1CCS(=O)(=O)N1CCC2(CC1)N=C(CCCCCC(F)(F)C(F)(F)F)NC2=O [Compound 1043, 1-(3,5-Dimethyl-4-{2-[4-oxo-2-(6,6,7,7,7-pentafluoro-heptyl)-1,3,8-triaza-spiro[4.5]dec-1-ene-8-sulfonyl]-ethyl}-phenyl)-1-methyl-urea]
22 | 86% | CC(=O)N(C)c1cc(C)c(CCS(=O)(=O)N2CCC3(CC2)N=C(CCCCCCC(F)(F)F)NC3=O)c(C)c1 [Compound 1044, N-(3,5-Dimethyl-4-{2-[4-oxo-2-(7,7,7-trifluoro-heptyl)-1,3,8-triaza-spiro[4.5]dec-1-ene-8-sulfonyl]-ethyl}-phenyl)-N-methyl-acetamide]

Row | SMILES | cAMP production activity (%)
23 | Cc1cc(N(C)C(N)=O)cc(C)c1/C=C/S(=O)(=O)N1CCC2(CC1)N=C(c1ccc(OCCCC(F)(F)F)cc1)NC2=O [Compound 1020, 1-[3,5-dimethyl-4-((E)-2-{4-oxo-2-[4-(4,4,4-trifluoro-butoxy)-phenyl]-1,3,8-triaza-spiro[4.5]dec-1-ene-8-sulfonyl}-vinyl)-phenyl]-1-methyl-urea] | 81%
24 | Cc1cc(N(C)C(=O)OC(C)(C)C)cc(C)c1CCS(=O)(=O)N1CCC2(CC1)N=C(C1CCCN1C(=O)OC(C)(C)C)NC2=O (stereo not drawn) [Compound 1033, 2-(8-{2-[4-(tert-Butoxycarbonyl-methyl-amino)-2,6-dimethyl-phenyl]-ethanesulfonyl}-4-oxo-1,3,8-triaza-spiro[4.5]dec-1-en-2-yl)-pyrrolidine-1-carboxylic acid tert-butyl ester] | 22%
